The values below come from PubChem BioAssay AID1506 (NMMLSC, 2009).

The test system of this assay is S. aureus strains, lipase production inhibition. Nature of the assay: quorum-sensing-driven lipase output in S. aureus strains – NM300, NM400, MRSA3757, S. aureus quorum sensing inhibitors (AID 1506). To be noted: for inhibition: stronger effect = higher value.
[1] abbreviates: lipase inhibition, MRSA3757, at 12 µM.
[2] abbreviates: lipase inhibition, strain NM400, at 12 µM.

Active and inactive are the calls of the source. No rule for the calls is given here.

On to `CC1CCCN(C(C(=O)Nc2ccc3c(c2)OCO3)c2ccccc2)C1` (stereo not given), for which, under “at 12 µM”, the outcome is “inactive; agr3 active”. The inhibition (as a rule, the drop in the measured response relative to a control, in per cent) was determined as 0% under setting [1] and 84% under setting [2].
`CC1CCCN(C(C(=O)Nc2ccc3c(c2)OCCO3)c2ccccc2)C1` (stereo not given): the outcome (at 12 µM) is “inactive; agr3 active”. This compound displayed an inhibition under setting [1] of 0% and an inhibition under setting [2] of 68%.
For the compound `Cc1c(Cl)cccc1Nc1ccccc1C(=O)O`, the inhibition was 80% (at 30 µM) and 90% (lipase inhibition, strain NM300, at 30 µM).
As for `CCc1oc2ccccc2c1C(=O)c1cc(Br)c(O)c(Br)c1`, the inhibition (at 6 µM) is 80% and the inhibition (lipase inhibition, strain NM300, at 6 µM) is 95%.
